Measurements as given in ChEMBL document CHEMBL1201862, “PubChem BioAssay data set” (2004).
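Protocol summary: plate cells (96-well), add compound at 5 concentrations, incubate 48 h, interpolate endpoints linearly. Here, GI50 denotes the concentration required for 50% inhibition of growth.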 Calls of active or inactive are those of the source. Rule as the data show it: active = GI50 up to about 1.1 µM and inactive = higher.

What was measured:
Experiment in all cases: inhibition of tumour cell growth, NCI panel, 48 h
[1] = test system: A498
[2] = test system: A549
[3] = test system: HT-29
[4] = test system: LOX IMVI
[5] = test system: MOLT-4
[6] = test system: Malme-3M
[7] = test system: NCI-H460
[8] = test system: NCI-H522
[9] = test system: SF-268
[10] = test system: SN12C
[11] = test system: SNB-19
[12] = test system: SNB-75
[13] = test system: SW-620
[14] = test system: UACC-257
[15] = test system: HOP-92
[16] = test system: NCI-H226
[17] = test system: SR

Measured: GI50

COc1ccc(C(=O)C(CO)Oc2ccccc2OC)cc1OC (centres undefined)
inactive: [1] > 100 µM | [2] > 100 µM | [3] > 100 µM | [4] > 100 µM | [5] > 100 µM | [6] > 100 µM | [7] > 100 µM | [8] 91 µM | [9] > 100 µM | [10] > 100 µM | [11] > 100 µM | [12] > 100 µM | [13] > 100 µM | [14] > 100 µM

O=S1(=O)[C@H](c2ccccc2)c2c(-c3ccccc3)sc(-c3ccccc3)c2[C@@H]1c1ccccc1
inactive: [2] > 100 µM | [15] 27 µM | [3] > 100 µM | [4] 58.5 µM | [5] > 100 µM | [6] 94.2 µM | [7] > 100 µM | [8] 13 µM | [9] > 100 µM | [10] > 100 µM | [11] > 100 µM | [12] 26.1 µM | [13] > 100 µM | [14] > 100 µM

Cc1ccc(NC(=O)C(=O)C(C(=O)c2ccc3ccccc3c2)C2OC(=O)c3ccccc32)c(C)c1 (centres undefined)
inactive: [1] 6.1 µM | [2] 18 µM | [15] 7.03 µM | [3] 25.7 µM | [4] 10.6 µM | [5] 3.31 µM | [6] 8.99 µM | [16] 2.63 µM | [7] 5.57 µM | [8] 12.8 µM | [9] 3.68 µM | [10] 15.5 µM | [11] 4.37 µM | [12] 9.14 µM | [13] 5.71 µM | [14] 12.8 µM

O=Cc1c(O)c(C(=O)Nc2ccc3[nH]c(=O)[nH]c3c2)cc2ccccc12
inactive: [1] > 100 µM | [2] > 100 µM | [15] > 100 µM | [3] > 100 µM | [4] > 100 µM | [5] > 100 µM | [6] > 100 µM | [16] > 100 µM | [7] > 100 µM | [8] > 100 µM | [9] > 100 µM | [10] > 100 µM | [11] > 100 µM | [12] > 100 µM | [13] > 100 µM | [14] > 100 µM

C=C(C)C12CC3CC(/C(=N/O)C(C1)/C3=N\O)[C@@]2(C)O (some centres undefined)
inactive: [2] > 100 µM | [3] > 100 µM | [4] > 100 µM | [5] > 100 µM | [6] > 100 µM | [16] > 100 µM | [7] > 100 µM | [8] > 100 µM | [9] > 100 µM | [10] > 100 µM | [11] > 100 µM | [12] 93.8 µM | [17] > 100 µM | [13] > 100 µM | [14] > 100 µM

COc1ccc(-c2oc(/C=N/NC(N)=S)c([N+](=O)[O-])c2-c2ccc(OC)c(OC)c2)cc1OC
inactive: [2] 35.6 µM | [15] 24.2 µM | [3] 23.1 µM | [4] 15.9 µM | [6] 17.3 µM | [16] 28.1 µM | [8] 23.6 µM | [9] 16.6 µM | [10] 36 µM | [11] 36.1 µM | [12] 18 µM | [13] 33.1 µM | [14] 31.8 µM

O=C(c1ccc(Cl)cc1)c1ccc(OCCSCCCCCCCCCCSCCOc2ccc(C(=O)c3ccc(Cl)cc3)cc2)cc1
inactive: [1] > 100 µM | [2] > 100 µM | [15] > 100 µM | [3] > 100 µM | [4] > 100 µM | [5] > 100 µM | [6] > 100 µM | [16] > 100 µM | [7] > 100 µM | [8] > 100 µM | [9] > 100 µM | [10] > 100 µM | [11] > 100 µM | [12] > 100 µM | [13] > 100 µM | [14] > 100 µM

C=C1C(=O)OC2CCCCC3OC3C12 (centres undefined)
inactive: [1] 15.3 µM | [2] 20.9 µM | [3] 14.4 µM | [4] 15.8 µM | [5] 13.1 µM | [6] 10.7 µM | [7] 14.8 µM | [8] 1.87 µM | [9] 13.8 µM | [10] 7.62 µM | [11] 20 µM | [12] 20.4 µM | [17] 23 µM | [13] 4.06 µM | [14] 13.4 µM

O=C(Nc1ccc(Cl)cc1)c1cc([N+](=O)[O-])ccc1O
inactive: [1] 2.47 µM | [2] 4.62 µM | [3] 3.62 µM | [4] 3.29 µM | [5] 2.58 µM | [6] 2.13 µM | [16] 3.55 µM | [7] 3.01 µM | [8] 2.09 µM | [9] 4.97 µM | [10] 4.07 µM | [11] 3.77 µM | [12] 3.84 µM | [17] 5.57 µM | [13] 5.07 µM | [14] 4.84 µM

CCOC(=O)c1cccc(=O)c(C(=O)OCC)c1
inactive: [1] > 100 µM | [2] 46.9 µM | [3] 58.2 µM | [5] 35.7 µM | [6] 66.1 µM | [16] 19.1 µM | [7] 80 µM | [12] 56.9 µM | [13] 50.2 µM | [14] 57.8 µM

COc1cc(Oc2c(O)c(C)c(OC)c(C(C)=O)c2O)c(C(C)=O)c(O)c1C
inactive: [2] 45.8 µM | [15] 44.6 µM | [3] 71.8 µM | [4] 57.3 µM | [6] 42.8 µM | [16] 85.9 µM | [7] 46.9 µM | [8] 12.9 µM | [9] 66.4 µM | [10] 34.9 µM | [11] 63 µM | [12] > 100 µM | [17] > 100 µM | [13] 57.3 µM | [14] 40.6 µM

CCCCn1c(-c2ccccc2)cs/c1=N\NC(=O)Cn1c(C)nc2ccccc21
inactive: [1] > 100 µM | [2] 81.1 µM | [3] > 100 µM | [4] 32.6 µM | [5] 16.3 µM | [6] 35.7 µM | [16] 35.8 µM | [7] 76.7 µM | [8] 30.2 µM | [10] 19.8 µM | [11] > 100 µM | [12] 60.1 µM | [17] 11.5 µM | [13] > 100 µM | [14] 34.5 µM

COC(=O)CC1CCN(C#N)CC1CC[N+](=O)[O-] (centres undefined)
inactive: [1] > 100 µM | [2] > 100 µM | [5] > 100 µM | [6] > 100 µM | [16] > 100 µM | [7] > 100 µM | [8] > 100 µM | [9] > 100 µM | [10] > 100 µM | [11] > 100 µM | [12] > 100 µM | [17] > 100 µM | [13] > 100 µM | [14] > 100 µM
